This note sets out measurements from patent publication US20090239860A1, “NOVEL BENZOFURAN DERIVATIVE, MEDICINAL COMPOSITION CONTAINING THE SAME, AND USES OF THESE” (priority 2004, published 2009).

Structures are written as SMILES.

The first assay concerns Haloperidol-induced catalepsy in rats. As to the kind of experiment: Haloperidol-induced catalepsy in rats (horizontal bar test). To be noted: male rats; compound 10 mg/kg orally in PEG400 2 hours before measurement; 5 hours after 1 mg/kg i.p. haloperidol; maximum 180 seconds (control 180.0). Format: in vivo, rat. The method, then: Haloperidol-Induced Catalepsy in Rats
The effect of a compound on drug-induced catalepsy in rats was evaluated. Parkinson's disease is a movement disorder reflecting a decline in striatal dopamine due to the degeneration of dopaminergic neuron arising from the sbstantia nigra. When haloperidol, a blocker of dopamine D2 receptor is administered in rats, the drug induces catalepsy which is considered as one of the Parkinson's disease-like symptoms since haloperidol blocks the neurotransmission of dopaminergic neuron. Male rats (Crj: CD(SD)IGS, bodyweight: 210-260 g, Charles River Japan, Inc.) were used for the experiments. Three to five rats for each group were tested for catalepsy 5 hours after intraperitoneal administration of 1 mg/kg haloperidol (Serenace (registered mark); Dainippon Pharma), a dopamine D2 antagonist. Catalepsy was measured using the horizontal bar test (Morelli and Chiara, “Eur. J. Pharmacol.”, vol. 117, p. 179-185 (1985)). A compound (10 mg/kg) was dissolved in PEG400 and administered orally 2 hours prior to the measurement of catalepsy. PEG400 was also administered orally to the rats for the control group. The front feet of the rats were placed on a horizontal bar (3 mm in diameter) suspended 10-12 cm above a platform and their rear feet were placed on the platform. The degree of catalepsy produced in the rats was measured by how long it took for their front feet to remove themselves from the bar. A maximum of 180 seconds was allowed.
For `COc1ccc2c(NC(=O)c3ccc(F)cc3)c(C(N)=O)oc2c1` [Compound 1-16], the Duration of catalepsy was determined as 116.4 s.

With `CCc1ccc(C(=O)Nc2c(C(N)=O)oc3ccc(F)cc23)o1` [Compound 1-121], the Duration of catalepsy worked out at 48.2 s.

`NC(=O)c1oc2ccc(Cl)cc2c1NC(=O)C1CC1` [Compound 1-2, 3-Cyclopropanecarbonylamino-5-chlorobenzofuran-2-carboxamide] returned a Duration of catalepsy of 91.6 s.

Turning to `NC(=O)c1oc2c(F)cc(F)cc2c1NC(=O)C1CC1` [Compound 1-155], the Duration of catalepsy stood at 38.3 s.

The target in another assay is T1, human adenosine A2A receptor (Homo sapiens, UniProt P29274).
T1 construct: expressed in transfected cells; host or cells: CHO-K1 (Chinese hamster ovary-K1), transient transfection with Lipofectamine 2000
T1 sequence (P29274 whole entry): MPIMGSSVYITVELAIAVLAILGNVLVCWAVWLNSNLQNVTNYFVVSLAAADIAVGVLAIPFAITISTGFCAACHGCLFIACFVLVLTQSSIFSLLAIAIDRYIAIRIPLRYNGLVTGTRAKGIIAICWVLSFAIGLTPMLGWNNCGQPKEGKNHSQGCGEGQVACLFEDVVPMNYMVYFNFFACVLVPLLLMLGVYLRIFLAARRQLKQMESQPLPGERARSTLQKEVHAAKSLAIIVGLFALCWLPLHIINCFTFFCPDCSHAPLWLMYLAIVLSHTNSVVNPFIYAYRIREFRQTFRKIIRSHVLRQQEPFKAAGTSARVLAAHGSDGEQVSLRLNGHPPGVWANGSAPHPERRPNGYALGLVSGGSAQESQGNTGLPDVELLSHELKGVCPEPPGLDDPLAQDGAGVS
Briefly: Measurement of antagonistic action for human adenosine A2A receptor (inhibition of NECA-induced cAMP production in transfected CHO-K1 cells). It counts as cell-based. To be noted: human adenosine A2A receptor-expressed CHO-K1 cells, Ki from IC50 and Km for NECA. The method, then: Measurement of Antagonistic Action for Human Adenosine A2a Receptor
1) Preparation of Human Adenosine A2a Receptor-Expressed Cells
When Chinese hamster ovary-K1 (CHO-K1) cells were grown to subconfluence, they were treated with trypsin and suspended in D-MEM/F-12 medium (Invitrogen) including 10% fetal bovine serum (Sankojunyaku). The expression vector of human adenosine A2A receptor prepared in OPTI-MEM I (Invitrogen) and the transfection reagent of Lipofectamine 2000 (Invitrogen) were added to the cell suspension, and those cells were inoculated in poly-D-lysine-coated 96-well plates (5×10^4 cells/well). After incubating the plates for 24-30 hours at 37° C. in a humidified atmosphere with 5% CO2, they were used for the subsequent assays.
2) Measurement of the Inhibitory Effect on Human Adenosine A2a Receptor Activity
A test compound was dissolved in dimethyl sulfoxide (DMSO) and the resulting solution was added to D-MEM/F-12 medium supplemented with 2.5 unit/mL adenosine deaminase (Carbiochem) and 30 μM rolipram (Sigma), a phosphodiesterase inhibitor to prepare a solution of the test compound. Adenosine deaminase was used for the inactivation of adenosine derived from the cells.
The human adenosine A2A-expressed cells inoculated in the 96-well plates were washed twice with 150 μL/well of D-MEM/F-12 medium and a 50-μL aliquot of the test compound solution was then added to each well of the plates. After incubating the cells for 10 minutes at 37° C. in a humidified atmosphere with 5% CO2, a 50-μL aliquot of 1.2 nM 5′-N-ethylcarboxyamideadenosine (NECA; Sigma) including 2.5 unit/mL adenosine deaminase and 30 μM rolipram was added to each well of the plates and incubated for 25 minutes at 37° C. in a humidified atmosphere with 5% CO2. Stopping the reaction and the subsequent measurement of cAMP were performed by use of a cAMP enzyme-linked immunosorbent assay kit (Applied Biosystem). The chemoluminescence was measured by a Microplate Luminometer TR717 (Applied Biosystem). The experiments were carried out in duplicate wells.
Inhibitory rate of a test compound for NECA-induced cAMP production was found by the following formula:
Inhibitory rate (%)=[1−{(cAMP level with a test compound and NECA)−(cAMP level without a test compound and NECA)}/{(cAMP level with NECA)−(cAMP level without a test compound and NECA)}]×100
Using a Km value for NECA found by the measurement in the same plate as that of test compounds, an inhibitory constant Ki was found by the following formula: […]
Turning to `CC(C)(C)OC(=O)N1CCN(Cc2ccc(C(=O)Nc3c(C(N)=O)oc4c(F)cc(F)cc34)o2)CC1` [Compound 2-142, tert-butyl 4-[5-(2-carbamoyl-5,7-difluoro-benzofuran-3-ylcarbamoyl)furan-2-ylmethyl]piperazine-1-carboxylate], the Ki came out at 2 nM.

In turn, `COc1ccc2c(NC(=O)c3ccc(CSc4nccn4C)cc3)c(C(N)=O)oc2c1` [Compound 2-7] came in with a Ki of 8.6 nM.

`NC(=O)c1oc2ccc(Cl)cc2c1NC(=O)c1ccco1` [Compound 1-108] yielded a Ki of 9.3 nM.

Compound `COc1ccc(C(=O)Nc2c(C(N)=O)oc3c(OC)cc(F)cc23)cc1` [Compound 1-213] registered a Ki of 2.1 nM.

The compound `NC(=O)c1oc2c(F)cc(F)cc2c1NC(=O)Cc1ccccc1` [Compound 1-249] registered an inhibition constant Ki of 4.6 nM.

Take `COc1ccc2c(NC(=O)c3ccc(-c4ccccc4)o3)c(C(N)=O)oc2c1` [Compound 1-133]: the Ki came to 3.2 nM.

Turning to `NC(=O)c1oc2ccc(F)cc2c1NC(=O)COCc1ccccc1` [Compound 1-150], the Ki was 2.2 nM.

`COc1ccc2c(NC(=O)c3cccc(F)c3)c(C(N)=O)oc2c1` [Compound 1-15] had a Ki of 6.5 nM.

For the compound `NC(=O)c1oc2c(F)cc(F)cc2c1NC(=O)C1CCC1` [Compound 1-161], the affinity corresponds to a Ki of 7 nM.

In turn, `NC(=O)c1oc2c(Cl)cc(F)cc2c1NC(=O)C1CC1` [Compound 1-156] came in with a Ki of 9.8 nM.

Regarding `NC(=O)c1oc2c(F)cc(F)cc2c1NC(=O)c1ccc(CN2CCN(Cc3ccccc3)CC2)o1` [Compound 2-129], the Ki came to 1.6 nM.

In the case of `CN1CCN(C(=O)c2cccc(C(=O)Nc3c(C(N)=O)oc4c(F)cc(F)cc34)c2)CC1` [Compound 1-275], the Ki came out at 0.5 nM.

The compound `Cc1ccc(C(=O)Nc2c(C(N)=O)oc3c(F)cc(F)cc23)o1` [Compound 1-119] gave a Ki of 1.9 nM.

Turning to `COc1ccc2c(NC(=O)c3ccc(F)cc3)c(C(N)=O)oc2c1` [Compound 1-16], affinity was put at a Ki of 0.9 nM.

`CCc1ccc(C(=O)Nc2c(C(N)=O)oc3c(F)cc(F)cc23)o1` [Compound 1-125]: the inhibitory constant (Ki) is 1.2 nM.

Compound `NC(=O)c1oc2cc(F)ccc2c1NC(=O)c1ccc2c(c1)OCO2` [Compound 1-91] had a Ki of 6.5 nM.

Consider `CC(O)c1ccc(C(=O)Nc2c(C(N)=O)oc3ccc(F)cc23)o1` (stereo not shown) [Compound 6-2, 5-Fluoro-3-[5-(1-hydroxyethyl)furan-2-carbonyl]-aminobenzofuran-2-carboxamide], for which the Ki turned out to be 1.1 nM.

`COCC(=O)Nc1c(C(N)=O)oc2cc(OC)ccc12` [Compound 1-141] displayed a Ki of 9.3 nM.

For `Cc1cccc(C(=O)Nc2c(C(N)=O)oc3ccc(F)cc23)c1` [Compound 1-36], affinity was put at a Ki of 6.4 nM.

Compound `NC(=O)c1oc2ccc(F)cc2c1NC(=O)COc1ccc(Cl)cc1` [Compound 1-145] yielded a Ki of 2.7 nM.

In turn, `NC(=O)c1oc2cc(Cl)ccc2c1NC(=O)C1CC1` [Compound 1-153] displayed a Ki of 9.2 nM.

With `NC(=O)c1oc2c(F)cc(F)cc2c1NC(=O)c1ccco1` [Compound 1-109], the affinity corresponds to a Ki of 2.7 nM.

Consider `NC(=O)c1oc2c(F)cc(F)cc2c1NC(=O)c1ccc(CN2CCN(Cc3ccc4c(c3)OCO4)CC2)o1` [Compound 2-138], for which the affinity corresponds to a Ki of 2 nM.

Compound `NC(=O)c1oc2ccc(F)cc2c1NC(=O)C1CC1` [Compound 1-1, 3-Cyclopropanecarbonylamino-5-fluorobenzofuran-2-carboxamide] came in with a Ki of 8.5 nM.

Consider `COc1cc(F)cc2c(NC(=O)C3CC3)c(C(N)=O)oc12` [Compound 1-159], for which affinity was put at a Ki of 3.3 nM.

With `COc1ccc2c(NC(=O)c3cccc(CN4CCN(c5ccccc5)CC4)c3)c(C(N)=O)oc2c1` [Compound 2-1, 6-Methoxy-3-[3-(4-phenylpiperazin-1-ylmethyl)benzoylamino]-benzofuran-2-carboxamide], the affinity corresponds to a Ki of 8 nM.

As to `NC(=O)c1oc2cc(F)ccc2c1NC(=O)c1ccc(Oc2ccccc2)nc1` [Compound 1-138], the Ki is 4.5 nM.

`CCc1ccc(C(=O)Nc2c(C(N)=O)oc3ccc(F)cc23)o1` [Compound 1-121] came in with a Ki of 0.8 nM.

Take `NC(=O)c1oc2ccc(Cl)cc2c1NC(=O)C1CC1` [Compound 1-2, 3-Cyclopropanecarbonylamino-5-chlorobenzofuran-2-carboxamide]: the Ki is 4.1 nM.

In the case of `NC(=O)c1oc2c(F)cc(F)cc2c1NC(=O)C1CC1` [Compound 1-155], the Ki was determined as 8.1 nM.
